These results are taken from PMC10276294, “Regulatory ligand binding in plant chalcone isomerase–like (CHIL) proteins” (The Journal of Biological Chemistry, 2023).

For test [1], the target named is T1, PpCHIL-A (Physcomitrium patens, UniProt A9T3E4). The test can be described thus: Differential scanning fluorimetry (DSF) thermal shift, PpCHIL-A. In kind it is binding, Physcomitrella patens. To be noted: for difference of apparent Kd relative to NC: PpCHIL-A; for ΔTm: read-out: maximum thermal shift (ΔTmmax). From the text:
(§1) Differential scanning fluorimetry (DSF) is a sensitive and label-free method for measuring the Tm of a protein, defined as the temperature at which 50% of a protein sample is unfolded ([21]). Positive Tm changes have been used to measure binding between a CHIL protein and chalcones ([15]). To elucidate a broader scope of CHIL–chalcone interactions, DSF was used to determine the thermal shifts that occur to VvCHIL and PpCHIL-A upon binding naturally occurring chalcones containing different substitution patterns (Fig. 1).
(§2) Assays were performed using SYPRO orange dye (1:625 dilution) and 6 μM CHIL protein against dilution series of (2R/2S)-naringenin (Sigma–Aldrich), NC, 2ʹ,4,4ʹ-trihydroxychalcone (Indofine), 2,2ʹ,4ʹ-trihydroxychalcone (Indofine), and quercetin (Thermo Scientific). Reactions were run in 20 μl reaction volumes and in a buffer containing 150 mM NaCl, 25 mM Tris (pH 8.0), 2 mM DTT, and 2% DMSO. Because of low solubility, 2% DMSO was used for all reactions to enhance ligand solubility. Experiments were performed on a QuantStudio 3 Real-Time PCR and analyzed using Protein ThermalShift software (Thermo Fisher Scientific). Replicates of two to four experiments were conducted for each condition, and GraphPad Prism 9 was used to fit maximum thermal shift (ΔTmmax) and apparent Kd values.
In general terms: In DSF a fluorescence change marks the thermal transition of the protein.

Test [2] addresses T2, VvCHIL (Vitis vinifera, UniProt F6HC36). The test can be described thus: Differential scanning fluorimetry (DSF) thermal shift, VvCHIL. In kind it is binding. The note with it: for ΔTm: read-out: maximum thermal shift (ΔTmmax); for effect on protein thermostability (thermal shift): high ligand concentration.
Excerpt: as §1, §2

Test [3] deals with Chalcone isomerase-like protein from Vitis vinifera (VvCHIL) (Vitis vinifera). The test can be described thus: SEC; HiPrep Sephacryl S-200 high-resolution column, 1 ml/min, 200 mM NaCl, 25 mM Tris pH 8.0, 2 mM DTT; His tags removed; masses against Bio-Rad standards. Background: SEC sorts molecules by how far they enter the pores of the column.
The target of the next test is HlCHIL1. Further details: method as in PMID 29760092. The note with it: measured by DSF; ref [15]; cited from earlier work.
The target in test [4] is T3, VvCHIL W221L (Vitis vinifera, UniProt F6HC36, W221L). The test can be described thus: DSF thermal shift, VvCHIL W221L variant. In kind it is binding. The method, then:
as §2

Test [5] concerns the target T4, PpCHIL-A L188W (Physcomitrium patens, UniProt A9T3E4, L188W). The test can be described thus: DSF thermal shift, PpCHIL-A L188W variant. In kind it is binding, Physcomitrella patens. The protocol: as §2
A further test has as its system VvCHIL–AtCHS binding. The test can be described thus: Protein pull-down assay, strep-AtCHS and untagged VvCHIL. More on the design: species or system Vitis vinifera / A. thaliana. The note with it: for effect on VvCHIL–AtCHS binding: increasing ligand concentrations, 2% DMSO. The protocol: (§3) Protein pull-down assays were conducted using 1 mg of purified strep-tagged AtCHS or PpCHS and 0.3 ml StrepTactin Sepharose resin. The untagged purified VvCHIL or PpCHIL-A proteins was used as […] (0.5 mg). Binding reactions were incubated at room temperature either without ligand and 2% DMSO, or with the reported concentration of ligand and 2% DMSO. The StrepTactin resin was washed 4× with 1 ml of buffer in order to remove unbound protein prior to elution. Each wash buffer contained the reported concentration of ligand, 2% DMSO, 150 mM NaCl, 50 mM Tris (pH 8.0), and 2 mM DTT. Strep-CHS was eluted from the StrepTactin resin with 0.1 ml elution buffer, which contains 1 mM desthiobiotin, 2% DMSO, 150 mM NaCl, 50 mM Tris (pH 8.0), and 2 mM DTT. The pull-down assays were resolved using 15% acrylamide SDS-PAGE and native PAGE gels and imaged and quantified using Image Lab (Bio-Rad). About 50 mM of DTT was used in the native PAGE loading buffer.

Test [6] has as its target T5, VvCHIL Q141A (Vitis vinifera, UniProt F6HC36, Q141A). The test can be described thus: DSF thermal shift, VvCHIL Q141A variant. In kind it is binding. The protocol:
as §2

A further test relates to PpCHIL–PpCHS binding. Nature of the test: Protein pull-down assay, strep-PpCHS and untagged PpCHIL-A. Further details: species or system P. patens. To be noted: 4.3 mM ligand. The protocol:
as §3

In the next test the test system is PpCHS–PpCHIL-A L188W. The test can be described thus: Protein pull-down assay, strep-PpCHS and PpCHIL-A L188W. In kind it is binding, P. patens. The note with it: 4.3 mM ligand. The method, then: as §3
The target of test [7] is T3, VvCHIL W221L. Nature of the test: Quercetin fluorescence enhancement assay, VvCHIL W221L. In kind it is binding. The method, then:
(§4) Fluorescence enhancement of quercetin (Thermo Scientific) was measured in the presence of VvCHIL and PpCHIL-A. The assays were performed in a buffer containing 25 mM Tris (pH 8.0), 150 mM NaCl, and 2% dimethyl sulfoxide (DMSO), used to solubilize quercetin. Protein concentrations were varied from 4.3 to 2250 μM relative to a constant concentration of quercetin (10 μM). After a binding equilibration period of 10 min at 25 °C, changes to the relative fluorescence intensity of quercetin (excitation 485 nm and emission 545 nm) were measured using a Vector X3 multimode plate reader (PerkinElmer). Background fluorescence from identical samples not containing quercetin was subtracted, and change-in-fluorescence data were fit using GraphPad Prism 9 (GraphPad Sofware, Inc) to a single-site binding equation in order to determine equilibrium dissociation constant (Kd) values.

Test [8] relates to VvCHIL W221L. The test is described as above. To be noted: VvCHIL W221L, fluorescence. In kind it is binding, Vitis vinifera. The protocol:
as §4

The target of test [9] is T2, VvCHIL. Nature of the test: Quercetin fluorescence enhancement assay, VvCHIL. In kind it is binding. The method, then: as §4
For test [10], the target named is T4, PpCHIL-A L188W. The test can be described thus: Quercetin fluorescence enhancement assay, PpCHIL-A L188W. In kind it is binding, Physcomitrella patens. The protocol:
as §4

For test [11], the target named is T5, VvCHIL Q141A. Nature of the test: Quercetin fluorescence enhancement assay, VvCHIL Q141A. In kind it is binding. The protocol: as §4
Test [12] deals with T1, PpCHIL-A. The test can be described thus: Quercetin fluorescence enhancement assay, PpCHIL-A. To be noted: fluorescence enhancement of 10 μM quercetin, protein titrated, 25 °C, pH 8.0. In kind it is binding, Physcomitrella patens. The protocol:
as §4

The target in another test is T6, MsCHI-II (Medicago sativa, UniProt P28012).
T6 construct: His8 (thrombin-cleavable) (N, cleaved yes); made in house; host or cells: E. coli BL21 DE3-pRIL
T6 sequence (P28012 1-222): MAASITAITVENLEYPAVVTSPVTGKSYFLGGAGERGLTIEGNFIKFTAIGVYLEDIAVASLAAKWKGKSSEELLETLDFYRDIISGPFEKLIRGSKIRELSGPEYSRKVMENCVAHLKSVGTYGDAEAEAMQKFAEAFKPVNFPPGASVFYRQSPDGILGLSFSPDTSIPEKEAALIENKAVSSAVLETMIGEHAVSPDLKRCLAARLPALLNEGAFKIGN
The test can be described thus: Differential scanning fluorimetry (DSF) thermal shift, MsCHI-II. In kind it is binding. To be noted: pH 8.0, 2% DMSO, read-out: apparent Kd.

[13] abbreviates: DSF, 6 μM protein, pH 8.0, 2% DMSO.
Where [14] appears, read: DSF, single-site fit, 6 μM protein, pH 8.0, 2% DMSO, read-out: apparent Kd.
Setting [15] is: fluorescence enhancement of quercetin.

Where “and” joins values, the source holds several entries; their conditions need not be identical. Equal entries are not always repeated.

T5 sequence (F6HC36 entry or part of it Q141A): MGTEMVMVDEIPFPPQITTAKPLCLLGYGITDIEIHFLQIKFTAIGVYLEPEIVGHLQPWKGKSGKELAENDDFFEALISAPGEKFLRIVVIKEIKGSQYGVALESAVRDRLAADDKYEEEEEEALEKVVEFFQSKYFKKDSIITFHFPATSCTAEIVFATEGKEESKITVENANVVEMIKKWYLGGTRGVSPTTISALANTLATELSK
T1 sequence (A9T3E4 entry or part of it): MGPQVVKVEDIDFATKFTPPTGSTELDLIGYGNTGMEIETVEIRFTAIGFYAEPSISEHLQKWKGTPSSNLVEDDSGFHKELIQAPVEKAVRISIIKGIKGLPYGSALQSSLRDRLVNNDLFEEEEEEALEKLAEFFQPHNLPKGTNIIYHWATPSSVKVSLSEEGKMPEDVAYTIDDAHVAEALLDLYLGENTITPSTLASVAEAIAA
T3 sequence (F6HC36 entry or part of it W221L): as the sequence (F6HC36 entry or part of it Q141A) above, with A103Q, W183L counted along it
T4 sequence (A9T3E4 entry or part of it L188W): as the sequence (A9T3E4 entry or part of it) above, with L188W counted along it
T2 sequence (F6HC36 entry or part of it): as the sequence (F6HC36 entry or part of it Q141A) above, with A103Q counted along it

In the case of `O=C(/C=C/c1ccc(O)cc1)c1ccc(O)cc1O` [2ʹ,4,4ʹ-trihydroxychalcone], the Kd on PpCHIL-A [1] came to 41 ± 10 µM; at VvCHIL [2], 127 ± 51 µM. In addition, the “difference of apparent Kd relative to NC” value on PpCHIL-A [1] (DSF) is on record as “does not bind with an appreciable difference”. Moreover, the “fold difference of apparent Kd relative to NC (NC smaller)” value at VvCHIL [2] (VvCHIL, DSF) is reported as “approximately 5 fold”.

On to “Chalcone isomerase-like protein from Vitis vinifera (VvCHIL) (natural protein)”, for which, in [3], the stoichiometry N (commonly the number of molecules, sites or subunits per partner or assembly) was 3.

`O=C(/C=C/c1ccc(O)cc1)c1c(O)cc(O)cc1O` [NC, 2ʹ,4,4ʹ,6ʹ-tetrahydroxychalcone]: the Kd was 43 µM at HlCHIL1; 58 ± 16 µM at PpCHIL-A [1] (setting [14]); 17 ± 4 µM at VvCHIL W221L [4]; 18 ± 6 µM on PpCHIL-A L188W [5]; 24 ± 5 µM on VvCHIL [2] (setting [14]); 16 ± 2 µM at VvCHIL Q141A [6]. In addition, the ΔTmmax with HlCHIL1 is 6.4 °C. Also, the ΔTm on PpCHIL-A [1] (setting [13]) was 1.7 ± 0.2 °C; at VvCHIL [2] (setting [13]) it was 3.5 ± 0.2 °C. For the same molecule, on PpCHIL-A L188W [5] (PpCHIL-A L188W, DSF), the “increase of apparent binding affinity over wildtype PpCHIL-A” value was “approximately threefold”. In addition, the “effect on VvCHIL–AtCHS binding” value in the test with VvCHIL–AtCHS binding is “enhances binding”. Moreover, the “PpCHIL-A in the strep-PpCHS–bound fraction” value in the test with PpCHIL–PpCHS binding is “strongly enriched”. Moreover, the “pull-down of PpCHIL-A L188W by PpCHS” value in the test on PpCHS–PpCHIL-A L188W is reported as “enhanced”.

With `O=c1c(O)c(-c2ccc(O)c(O)c2)oc2cc(O)cc(O)c12` [quercetin], the Kd was 612 ± 167 µM on VvCHIL W221L [7]; 347 ± 35 µM on VvCHIL [9] (fluorescence enhancement of 10 μM quercetin, protein titrated, 25 °C, pH 8.0); 582 ± 282 µM on PpCHIL-A L188W [10] (setting [15]); 403 ± 59 µM at VvCHIL Q141A [11] (setting [15]); 240 ± 121 µM on PpCHIL-A [12]. Also, in the test with VvCHIL W221L [8], the “reduction of binding relative to wildtype VvCHIL” value is on record as “approximately twofold”. The “fraction of VvCHIL bound” value on VvCHIL [9] (750 μM quercetin, based on the Kd value for VvCHIL) was 0.68. The “ligand concentration that induces a negative thermal shift” value at VvCHIL [2] (VvCHIL, DSF) is recorded as “above 750 μM”. Also, the “effect on protein thermostability (thermal shift)” value on VvCHIL [2] (VvCHIL, DSF) is reported as “destabilizes”. In addition, the “reduction of binding affinity relative to wildtype PpCHIL-A” value at PpCHIL-A L188W [10] (fluorescence) is recorded as “approximately twofold”. Moreover, the “change of binding relative to wildtype VvCHIL” value on VvCHIL Q141A [11] (fluorescence) is given as “not significantly altered”.

In the case of `O=C(/C=C/c1ccccc1O)c1ccc(O)cc1O` [2,2ʹ,4ʹ-trihydroxychalcone], the values for the ΔTm on PpCHIL-A [1] (setting [13]) and at VvCHIL [2] (setting [13]) were 2.7 ± 0.2 °C and 3.3 ± 0.7 °C, respectively. The Kd on PpCHIL-A [1] (setting [14]) is 85 ± 23 µM; at VvCHIL [2] (setting [14]), 286 ± 23 µM. In addition, the “difference of apparent Kd relative to NC” value at PpCHIL-A [1] (DSF) was “twofold greater”. Further, the “fold difference of apparent Kd relative to NC (NC smaller)” value at VvCHIL [2] (VvCHIL, DSF) was roughly 11 fold.

For the molecule `O=C1C[C@@H](c2ccc(O)cc2)Oc2cc(O)cc(O)c21` [naringenin], the Kd is 762 ± 39 µM at PpCHIL-A [1]; 180 ± 81 µM at PpCHIL-A L188W [5]; 1020 µM and 1050 µM on MsCHI-II. Further, the “thermal destabilization by ligand” value was “does not undergo thermal destabilization” on VvCHIL W221L [4] (VvCHIL W221L, DSF) and “does not undergo thermal destabilization” at VvCHIL Q141A [6] (VvCHIL Q141A, DSF). Besides, the “increase of apparent binding affinity over wildtype PpCHIL-A” value at PpCHIL-A L188W [5] (PpCHIL-A L188W, DSF) was “approximately fourfold”. The “reduction of thermal stabilization relative to wildtype PpCHIL-A” value on PpCHIL-A L188W [5] (PpCHIL-A L188W, DSF) was “approximately 2 °C”. At VvCHIL [2] (VvCHIL, DSF), the “effect on protein thermostability (thermal shift)” value is given as “reduced protein Tms at high naringenin concentrations”. Also, the “VvCHIL band in the strep-AtCHS–bound fraction” value in the test on VvCHIL–AtCHS binding (4.30 mM ligand) is “below the threshold of detection”. Besides, the “effect on VvCHIL–AtCHS binding” value in the test with VvCHIL–AtCHS binding was “increasingly disrupted”. For the same molecule, the “PpCHIL-A in the strep-PpCHS–bound fraction” value with PpCHIL–PpCHS binding was “observed in the bound fractions”. Moreover, in the test with PpCHS–PpCHIL-A L188W, the “pull-down of PpCHIL-A L188W by PpCHS” value was “similarly in the presence and absence of naringenin”.
